Measurements: patent US8598132B2, “Glycosylated indolocarbazoles, method for obtaining same and uses thereof” (Universidad de Oviedo, priority 2008, dated 2013)
pIC50: −log10 of the molar value.

Legend:
Assay type in all cases: biochemical
PDK1 = biological target: T1, PDK1 (Homo sapiens, UniProt O15530); assay: LabChip (Caliper) kinase assay, PDK1; conditions: read-out: remaining kinase activity (in %) / percentage of inhibition; for inhibition at 0.01 µM: compound at 10 nM; for inhibition at 0.1 µM: compound at 100 nM
T1 sequence (O15530 1-556): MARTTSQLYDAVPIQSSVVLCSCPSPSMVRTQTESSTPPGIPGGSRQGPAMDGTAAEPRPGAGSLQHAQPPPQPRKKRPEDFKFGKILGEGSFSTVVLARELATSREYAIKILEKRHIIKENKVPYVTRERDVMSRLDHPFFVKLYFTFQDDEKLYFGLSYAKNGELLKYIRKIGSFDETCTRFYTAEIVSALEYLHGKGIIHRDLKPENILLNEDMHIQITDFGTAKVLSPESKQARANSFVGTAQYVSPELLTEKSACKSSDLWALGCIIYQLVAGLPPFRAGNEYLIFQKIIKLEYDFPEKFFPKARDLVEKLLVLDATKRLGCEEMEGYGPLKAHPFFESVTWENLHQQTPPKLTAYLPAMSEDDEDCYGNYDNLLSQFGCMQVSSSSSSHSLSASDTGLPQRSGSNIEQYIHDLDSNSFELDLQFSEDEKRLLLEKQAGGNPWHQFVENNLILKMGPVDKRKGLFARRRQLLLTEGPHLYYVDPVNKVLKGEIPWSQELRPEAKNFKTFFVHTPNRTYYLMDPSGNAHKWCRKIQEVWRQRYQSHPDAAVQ
Protocol: (§1) The analysis of kinase activity described here was performed using LabChip (Caliper Life Sciences), specifically the Caliper LC3000 and the EZ Reader II instruments.
(§2) The kinase assay used measures the conversion of a fluorescent peptide (substrate) to a phosphorylated product. The reaction mixture, in a microplate well, is introduced by a capillary in a chip where the non-phosphorylated substrate and the phosphorylated product are separated by […]. The intensity of the fluorescent signal over time is related to the reaction progress. The phosphorylated product migrates quicker than the non-phosphorylated substrate and the signals of the two forms of the peptide appear as differentiated peaks. The Caliper determines the peak height and calculates the ratio of product to the peak sum (P/(P+S)). This value is used to compare wells with compounds and wells with controls and thus determine the % of inhibition for the given product.
(§3) The followings kinases were used for the enzymatic inhibition studies, between brackets the value of the Michaelis-Menten constant, Km, of the ATP (Adenosine triphosphate) for each kinase, in μM: obtained from Carna Biosciences: MAPKAPK2 (4.6), AurA (3.6), AurB (5), PKCζ (3.8), RSK1 (23.3), PRAK (5), Erk1 (33.4), PKD2 (32.1), CK1d (16.3), CHK1 (33), ABL (61.7), FYN (36), LYNa (17), CHK2 (57.8), MET (79.5), LCK (28.5), SRC (38), GSK3β (7.3), Erk2 (62.1), PKACα (1.7), AKT2 (186.1), INSR (871.8), p38a (396.5), AKT1(48), MSK1 (21.2), PKCβ2 (84.8), ROCK2 (3.3), PIM2 (4.9), AMPK (38.6), KDR (164.8), IRAK4 (196.5), SGK1 (121.8), SYK (33.5); obtained from Invitrogen: CDK2 (57.6), BTK (123), HGK (80); obtained from Upstate: MST2 (36.6), PKGα (16), PAK2 (1.9), IGF1R (320), FGFR1 (171), MARK1 (33), CAMK2δ (22.4), c-TAK1 (66), DYRK1a (18.1), CaMK4 (3.9), FLT3 (350), c-Raf (6.2), P70S6K (95).
(§4) The compounds were dissolved in 100% DMSO and were diluted at 25 times the final concentration desired for the assay. In the case of the determination of Cl50, serial dilutions were made to reach eight concentrations and give rise to the inhibition curve. 1 μL of each concentration is transferred, in duplicate to a 384-well microplate. 12 μL of enzymatic buffer is added to each well containing purified kinase (several suppliers as indicated above), 100 mM HEPES, pH 7.5, 1 mM DTT (Calbiochem), 0.002% Brij-35 (Sigma) and also in presence of 10 mM MgCl2 as cofactor, except for INSR and IRAK4 wherein 10 mM MnCl2 is used instead of MgCl2. For the kinases CAMK26 and CAMK4, 1 mM CaCl2 and 6.7 μg/mL of calmodulin are also added. For KDR kinase, 0.05% of the CHAPSO detergent is added. For the c-Raf kinase, 10 mM MnCl2 is added. For PKCβ2 0.02 μg/mL of PS/PMA is added. For PKGα se 10 μM of cGMP (cyclic guanosine monophosphate) is added. The compound and the enzyme are left for 15 minutes preincubation and, then, the following are added to each well: 12 μL of peptide buffer/ATP containing 100 mM HEPES, pH 7.5, 1.5 μM peptide marker with fluorescein (specific for the corresponding kinase), ATP (at concentration KM), and 0.002% Brij-35 to start the reaction. Generally, the reactions are incubated for 1-1.5 h at ambient temperature to obtain an adequate conversion (15-40%) of the peptide to the phosphorylated product. The reactions were ended by the addition of 45 μL of buffer containing 0 mM EDTA. The microplates were read by the LabChip 3000 using a 12-channel LabChip. The P/(P+S) values were obtained as described above and the CI50 curves were generated using XIfit.
(§5) For example, the activity of the Dyrk1a kinase is inhibited in 87% by the compound of formula (III) and completely by the compound of formula (XII) when used at a concentration of 10 nM.

CamK2a = assay: LabChip (Caliper) kinase assay, CamK2a
Protocol: as §1, §2, §3, §4, §5

Dyrk1a = biological target: T2, Dyrk1a (Homo sapiens, UniProt Q13627); assay: LabChip (Caliper) kinase assay, Dyrk1a; conditions: for inhibition at 0.01 µM: compound at 10 nM; for inhibition at 0.01 µM / inhibition at 0.1 µM: read-out: remaining kinase activity (in %) / percentage of inhibition; for inhibition at 0.1 µM: compound at 100 nM; for pIC50: ATP at Km, read-out: CI50 (the source's name)
T2 construct: purchased Upstate
Protocol: as §1, §2, §3, §4
Table 9a has the 0150 data obtained in pairs of compound-kinase selected from the compounds of formula (VII), (VIII), (IX), (XVI), (XVII) and (XVIII) after taking inhibition measurements at 100 nM and 10 nM. Those couples that provide >70% of inhibition at 10 nM were consider for measuring its IC50. […]

Row | Compound | inhibition at 0.01 µM (PDK1) | inhibition at 0.1 µM (PDK1) | remaining kinase activity (in %) / percentage of inhibition (CamK2a; compound at 10 nM) | remaining kinase activity (in %) / percentage of inhibition (CamK2a; compound at 100 nM) | inhibition at 0.01 µM (Dyrk1a) | inhibition at 0.1 µM (Dyrk1a) | pIC50 (Dyrk1a)
1 | C[C@@H]1O[C@@H](n2c3ccccc3c3c4c(c5c6ccccc6[nH]c5c32)C(=O)NC4=O)[C@H](O)[C@H](O)[C@H]1O [formula (III), N^13-1′-β-L-rhamnosylarcyriaflavin] | -6% | 46% | −5% | 3% | 87% | 103% | 
2 | C[C@@H]1O[C@@H](n2c3ccccc3c3c4c(c5c6ccccc6[nH]c5c32)C(=O)NC4=O)C[C@H](O)[C@H]1O [formula (IV), N^13-1′-β-L-olivosylarcyriaflavin] | 7% | 71% | 36% | 29% | 32% | 75% | 
3 | C[C@]12O[C@H](C[C@@H](O)[C@H]1O)n1c3ccccc3c3c4c(c5c6ccccc6n2c5c31)C(=O)NC4=O [formula (IX), N^12-5′(S)-N^13-1′-(R)-L-digitoxosylarcyriaflavin] |  |  |  |  |  |  | < 8.00
4 | C[C@@H]1O[C@@H](n2c3ccccc3c3c4c(c5c6ccccc6[nH]c5c32)C(=O)NC4=O)C[C@@H](O)[C@H]1O [formula (V), N^13-1′-β-L-digitoxosylarcyriaflavin] | 61% | 97% | 15% | 58% | 49% | 87% | 
5 | C[C@H]1O[C@@H](n2c3ccccc3c3c4c(c5c6ccccc6[nH]c5c32)C(=O)NC4=O)C[C@@H](O)[C@@H]1O [formula (VI), N^13-1′-β-D-olivosylarcyriaflavin] | 21% | 76% | 4% | 46% | 62% | 94% | 
6 | C[C@]12O[C@H]([C@H](O)[C@H](O)[C@H]1O)n1c3ccccc3c3c4c(c5c6ccccc6n2c5c31)C(=O)NC4=O [formula (VII), N^12-5′(S)-N^13-1′-(R)-L-rhamnosylarcyriaflavin] |  |  |  |  |  |  | 8.40
7 | C[C@@H]1O[C@@H](n2c3ccccc3c3c4c(c5c6ccccc6[nH]c5c32)CNC4=O)[C@H](O)[C@H](O)[C@H]1O [formula (XII), N^13-1′-β-L-rhamnosyl-k252c] | -10% | 15% | −6% | 2% | 101% | 115% | 
8 | C[C@@H]1O[C@@H](n2c3ccccc3c3c4c(c5c6ccccc6[nH]c5c32)CNC4=O)C[C@H](O)[C@H]1O [formula (XIII), N^13-1′-β-L-olivosyl-k252c] | 9% | 81% | −6% | 27% | 42% | 89% | 
9 | C[C@@H]1O[C@@H](n2c3ccccc3c3c4c(c5c6ccccc6[nH]c5c32)CNC4=O)C[C@@H](O)[C@H]1O [formula (XIV), N^13-1′-β-L-digitoxosyl-k252c] | 30% | 94% | −7% | 26% | 15% | 73% | 
10 | C[C@H]1O[C@@H](n2c3ccccc3c3c4c(c5c6ccccc6[nH]c5c32)CNC4=O)C[C@@H](O)[C@@H]1O [formula (XV), N^13-1′-β-D-olivosyl-k252c] | 3% | 81% | −6% | 29% | 14% | 50% | 
11 | C[C@]12O[C@H](C[C@@H](O)[C@H]1O)n1c3ccccc3c3c4c(c5c6ccccc6n2c5c31)CNC4=O [formula (XVIII), N^12-5′(S)-N^13-1′-(R)-L-digitoxosyl-k252c] |  |  |  |  |  |  | < 7.00
